{
  "source": "patent US20140024620A1",
  "about": "“Methods for Inhibiting Cell Proliferation in EGFR-Driven Cancers” (ARIAD PHARMACEUTICALS, INC., priority 2010, published 2014)",
  "system": "Ba/F3 cells expressing EGFR-Del/T790M",
  "assay": "tumor model using Ba/F3 cells expressing EGFR-Del/T790M",
  "format": "in vivo, mice",
  "source_text": "NSCLC cell lines as well as engineered Ba/F3 and NIH3T3 cell lines were used to examine the activity of compounds of formula (I) against 3 general forms of EGFR: native EGFR (the naturally occurring form), EGFR with an activating mutation (delE746_A750 [Del] or L858R; this form is sensitive to first generation EGFR inhibitors), and EGFR with both an activating mutation and a T790M resistance mutation (L858R/T790M or Del/T790M; the addition of the T790M mutation makes this form resistant to first generation EGFR inhibitors). Effects of test compounds on EGFR signaling were assessed by measuring levels of phosphorylated EGFR, effects on in vitro proliferation measured by a growth or viability assay, and effects on in vivo tumor growth measured in mice following daily oral dosing.",
  "data": [
    {"smiles": "COc1cc(N2CCC(N3CCN(C)CC3)CC2)ccc1Nc1ncc(Cl)c(Nc2ccccc2P(C)(C)=O)n1", "note": "[AP26113]", "values": [
      {"measurement": "inhibition at 50 mg/kg", "setting": "Mus musculus, BaF3, 24 h, read-out: inhibition of levels of phosphorylated EGFR in the tumor", "value": "> 80", "unit": "%"},
      {"measurement": "tumor growth inhibition", "setting": "daily oral dosing with 50 mg/kg", "value": "> 90", "unit": "%"}
    ]}
  ]
}
